According to patent US20060247255A1, “Method for preparing a stable gatifloxacin composition” (priority 2005, published 2006):

Assay: Polymorphic conversion testing after compression at 1 ton pressure and storage in different environments (DSC/FT-IR)
Type: physicochemical
Procedure: Polymorphic Conversion Testing after Compression at 1 Ton Pressure and Storage in Different Environments.
Compacts of glatifloxacin anhydrous and gatifloxacin hemihydrate were prepared and placed in chambers that were equilibrated as follows:
(i) 25° C. and 21% relative humidity (RH);
(iii) 40° C. and 21% RH; and
Compacts of glatifloxacin anhydrous and gatifloxacin hemihydrate were evaluated by DSC and FT-IR immediately after compression, after 2 days of exposure under the above conditions, and after 6 or 7 days of exposure.
Conversion is identified as a change in DSC thermogram or FT-IR pattern.

[1] = 6 or 7 Days at 25° C. and 21% RH
[2] = 6 or 7 Days at 25° C. and 75% RH
[3] = 6 or 7 Days at 40° C. and 21% RH
[4] = 6 or 7 Days at 40° C. and 75% RH

| Conversion (change in DSC thermogram) (2 Days at 25° C. and 21% RH) | Conversion (change in FT-IR pattern) (2 Days at 25° C. and 21% RH) | Conversion (change in DSC thermogram) (2 Days at 25° C. and 75% RH) | Conversion (change in FT-IR pattern) (2 Days at 25° C. and 75% RH) | Conversion (change in DSC thermogram) (2 Days at 40° C. and 21% RH) | Conversion (change in FT-IR pattern) (2 Days at 40° C. and 21% RH) | Conversion (change in DSC thermogram) (2 Days at 40° C. and 75% RH) | Conversion (change in FT-IR pattern) (2 Days at 40° C. and 75% RH) | Conversion (change in DSC thermogram) [1] | Conversion (change in FT-IR pattern) [1] | Conversion (change in DSC thermogram) [2] | Conversion (change in FT-IR pattern) [2] | Conversion (change in DSC thermogram) [3] | Conversion (change in FT-IR pattern) [3] | Physical stability [3] | Conversion (change in DSC thermogram) [4] | Conversion (change in FT-IR pattern) [4] | Conversion (change in DSC thermogram) (Immediately after compression) | Conversion (change in FT-IR pattern) (Immediately after compression) | SMILES | other results |
| --- | --- | --- | --- | --- | --- | --- | --- | --- | --- | --- | --- | --- | --- | --- | --- | --- | --- | --- | --- | --- |
| No/No | No/No | No/No | No/No | No/No | No/No | Yes/Yes | Yes/Yes | No/No | No/No | Yes/Yes | Yes/Yes | No/No | No/No | did not effect | Yes/Yes | Yes/Yes | No/No | No/No | COc1c(N2CCNC(C)C2)c(F)cc2c(=O)c(C(=O)O)cn(C3CC3)c12 (stereo not shown) [Gatifloxacin Anhydrous, 1-cyclopropyl-6-fluoro-1,4-dihydro-8-methoxy-7-(3-methyl-1-piperazinyl)-4-oxo-3-quinolinecarboxylic acid] | Physical stability (approximately 75% RH for a period of 2 days): deleteriously effects the physical stability |
| No/No | No/No | No/No | No/No | No/No | No/No | No/No | No/No | No/No | No/No | Yes | No | No/No | No/No | did not effect | Yes/Yes | Yes/Yes | No/No | No/No | COc1c(N2CCNC(C)C2)c(F)cc2c(=O)c(C(=O)O)cn(C3CC3)c12 (stereo not shown) [Gatifloxacin Hemihydrate, 1-cyclopropyl-6-fluoro-1,4-dihydro-8-methoxy-7-(3-methyl-1-piperazinyl)-4-oxo-3-quinolinecarboxylic acid] | Physical stability (approximately 75% RH for a period of at least 6 days): deleteriously effects the physical stability |
